Assay [1] concerns U87-MG cells. The experiment in a line: Cell viability with TMZ and DDI199 alone or combined. The conditions noted are these: 72 h, 250 µM TMZ or 0.5 µM DDI199 alone. The assay is classed as cell-based, human. The procedure:
MTT assay was used to study cell viability. For that, cells were seeded at a density of 1.5 × 10^3 cells/well in 96-well plates, incubated overnight and then treated with increasing concentrations of DDI199. After 72 h of treatment, MTT absorbance was measured at 570 nm. GraphPad Prism software was used to analyze results and calculate IC50 values.

Assay [2] has as its system U87-MG cells. Description: Subcutaneous U87-MG tumor growth, combined treatment with TMZ. It counts as in vivo, athymic nude-Foxn1nu mice. The note with it: end-point, controls 600 mm^3. The procedure:
(§1) For tumor growth experiments, 5 × 10^5 U87-MG cells were subcutaneously injected into two bottom flanks of athymic nude-Foxn1^nu mice, and once tumors reached a size of 25-50 mm^3, mice were sorted into groups taking into account gender and tumor size. Afterwards, mice were intratumorally treated with vehicle, SAHA 100 µM or DDI199 100 µM following a schedule of 5 days on and 2 days off. In combined treatment, mice were treated intraperitoneally with 0.5 mg/Kg of TMZ for 5 days and intratumorally following a schedule of 5 days on and 2 days off with vehicle, SAHA 100 µM or DDI199 100 µM. After 4 weeks of treatment, some mice were kept for washout experiment, while the rest were sacrificed and tumors were extracted for immunohistochemistry and to disaggregate for reinjection and oncosphere formation studies. For reinjection assays, 1.5 × 10^5 cells were subcutaneously injected and tumor size was periodically measured. Once tumors reached end-point criteria, they were extracted for immunohistochemical analysis. An external caliper was used for tumor size measurement and the tumor volume was estimated using the formula V = L · W^2 · 0.5 (where L is tumor length and W is the tumor width).

The subject of assay [3] is U87-MG cells. Description: Subcutaneous U87-MG tumor growth, single treatment. The assay is classed as in vivo, athymic nude-Foxn1nu mice. The conditions noted are these: day 34, 100 µM intratumoral, 5 days on 2 days off; controls 800 mm^3. As for the experimental part: as §1
Assay [4] relates to U87-MG cells. The experiment in a line: Washout experiment after treatment. The assay is classed as in vivo, athymic nude-Foxn1nu mice. The conditions noted are these: after 4 weeks treatment; controls 10 days. As for the experimental part: as §1

From publication PMC11971462, “Generation and validation of a novel multitarget small molecule in glioblastoma” (Cell Death & Disease, 2025) come the findings set out here.

`Cn1nnc2c(C(N)=O)ncn2c1=O` [TMZ, temozolomide, reference compound]: the “Cell viability, single agent” value in assay [1] is reported as “reduced cell viability”. Also, the “Mean tumor volume, TMZ alone” value in assay [2] (TMZ 0.5 mg/kg ip 5 days) turned out to be 400 mm^3.

Consider `O=C(CCCCCCC(=O)Nc1ccccc1)NO` [SAHA, Vorinostat, reference compound], for which the “Mean final tumor volume” value in assay [3] is 550 mm^3. The “Time to end-point volume after washout” value in assay [4] was 10 days. Moreover, the “Mean tumor volume, combined with TMZ” value in assay [2] (TMZ 0.5 mg/kg ip 5 days + 100 µM intratumoral) came to 355 mm^3.
